Patent US10765654B2, “Methods and compounds for treating cancer” (University of Vermont and State Agricultural College, priority 2011, dated 2020)

Key:
GBM12 GSCs = test: Cell cycle profile of GBM-derived GSC spheres (flow cytometry); assay type: cell-based, human; settings: 0.25% GTA in SCM for 24 hours; all GSCs except GBM8
Method: (§1) Cell cycle profiles were visualized by propidium iodide (PI) staining as previously described (Perez-Martinez & Jaworski (2005) J Neurosci 25:4917-29). OG35, OG33 and mouse neural stem cells were grown in stem cell medium (SCM; DMEM/F12, B27, 20 ng/ml ea bFGF & EGF) while the oligodendrocyte progenitor cell line, Oli-neu (Jung et al. (1995) Eur J Neurosci 7:1245-65) was grown in Sato's medium (DMEM supplemented with 100 μg/ml apotransferrin, 5 μg/ml insulin, 60 nM triiodothyronine, 30 nM sodium selenite, 100 μM putrescine, 1% horse serum, and 25 μg/ml G418). […] after 0.25% (v/v) GTA treatment, cells were trypsinized, recovered by centrifugation, re-suspended (10^6 cells/ml) in a low-salt PI solution ([…] polyethylene glycol PEG 8000, […], 180 U/ml RNase A, 0.1% Triton X-100, and 4 mM sodium citrate), and incubated at 37° C. for 20 minutes. After addition of an equal volume of high-salt PI solution ([…] polyethylene glycol PEG 8000, […], 180 U/ml RNase A, 0.1% Triton X-100, and 400 mM NaCl) and incubation at 4° C. for 1 hour, cell cycle profiles were recorded by flow cytometry (BD LSR 11 Flow Cytometer, BD Biosciences; Franklin Lakes, N.J.).
(§2) Flow cytometry was performed 24 hours after GTA treatment as described in prior examples herein.

GBM8 GSCs = test: as above; assay type: cell-based, human; settings: 0.25% GTA in SCM for 24 hrs
Method: as §1, §2

[1] = test system: OG33 oligodendroglioma stem cells; test: Growth dynamics, unbiased trypan blue exclusion based cytometry; assay type: cell-based, human; settings: 0.25% GTA, 5 days of treatment
Method: (§3) Growth dynamics were assessed using unbiased trypan blue exclusion based cytometry. Cells were plated (at 10,000 cells per well of a 24-well plate) directly in the absence or presence of 0.25% GTA. After 1, 3, and 5 days of treatment, cells were typsinized, collected via centrifugation, and counted according to the manufacturer's instructions (Countess Automated Cell Counter; Invitrogen Life Technologies; Carlsbad, Calif.).

[2] = test system: OG35 oligodendroglioma stem cells; test: as above; assay type: cell-based, human; settings: 0.25% GTA, 5 days of treatment
Method: as §3

[3] = test system: OG35 oligodendroglioma GSCs; test: Orthotopic graft in athymic mice, survival and bioluminescent imaging; assay type: in vivo; settings: OG35 engrafted mice
Method: Cells (2,500 cells in 4 μl) were injected into the right striatum (1 mm anterior, 1.5 mm lateral to bregma, 3.5 mm deep) of adult athymic mice (8-week-old, 25-28 g). […]
For in vivo imaging, mice were injected i.p. with 150 mg/kg D-luciferin potassium salt 5 minutes prior to imaging under 1.5% inhaled isoflurane. Peak efflux was determined from an average of 15 bioluminescent acquisitions, with 1 min inter-acquisition intervals, using the auto-exposure setting. Total photon efflux was determined by drawing regions of interest over the emitted region and setting thresholds for each mouse to maximize the number of pixels encircled using Living Image acquisition and analysis software (Version 3.0.3.5, Caliper Life Sciences, Hopkinton, Mass.). […]
Tumor bioluminescence (rate of flux change over time) and tumor volume were compared using a Mann-Whitney test. Survival was analyzed using Kaplan-Meier curves [Kaplan, EL and P Meier. (1958) J Am Stat Assoc 53:457-481] and comparisons between groups were analyzed with a log-rank test [Peto, R and J Peto. […]

For CC(=O)OCC(COC(C)=O)OC(C)=O [GTA, glyceryltriacetate], the “Growth arrest (increased proportion of cells in G0/G1 and decreased proportion in S phase)” value (GBM12 GSCs) was “exerted growth arrest”, the Growth arrest (GBM8 GSCs) was “did not induce growth arrest” and the Cell number [1] was “significantly decreased cell number”. The Cell number [2] was “significantly decreased cell number”, the Survival ([3]; GTA alone 5.8 g/kg intragastrically daily) was “did not significantly increase survival” and the “Time to tumor regrowth after termination of TMZ treatment” value ([3]; GTA with TMZ, bioluminescent imaging) was “significantly delayed”.
